row,Structure (SMILES),melting point [°C]
1,CN1CCC(O)(c2cnc3ccccc3c2)CC1,175
2,COc1cc(Nc2nccc(-c3ccc(NCCCN4CCN(C)CC4)nc3)n2)cc(OC)c1OC,183 to 184
3,CCC1(O)CCC2(C)C(CCC3C4CCC(C(C)=O)C4(C)CC(=O)C32)C1 (stereo unspecified),129
4,Cc1ccc(NP(N)(N)=O)c([N+](=O)[O-])c1,> 180
5,CSc1sc(C=O)cc1C=O,135 to 137
6,O=C1c2ccccc2C(=O)N1CCCOC(Cl)Cl,101 to 103
7,CC(C)(CCCCCCCc1c(-c2ccccc2)nc(-c2ccccc2)n1-c1ccccc1)C(=O)O,119 to 120
8,CC/C(=C\C=C\C(O)(C(F)(F)F)C(F)(F)F)c1cccc(CCc2ccc(CO)c(CO)c2)c1,104
9,C=CCc1cc(C2=NNC(=O)CC2)ccc1OCC(O)CNC(C)C (stereo unspecified),94 to 96.5
10,C#CCOc1cc(-n2nc(CCC=C)[nH]c2=O)c(Cl)cc1Cl,150 to 151
11,CC(C)(C)OC(=O)n1cnc(CN2C[C@@H](Cc3ccccc3)N(S(C)(=O)=O)Cc3cc(C#N)ccc32)c1,150 to 151
12,CC(C)C[C@H](NC(=O)[C@@H](N)Cc1c[nH]cn1)[C@@H](O)c1nccs1,118 to 126
13,CCN1CCN(C(=O)NC(C(=O)NC2C(=O)N(OCc3ccccc3)C2C)c2ccccc2)C(=O)C1=O (stereo unspecified),100 to 105
14,COc1ccc2c(c1)CC(=O)c1sccc1C2=C1CCN(C)CC1,157 to 158
15,COc1cc(OC)nc(Oc2c(Cl)cccc2C(=O)O)n1,151 to 152
16,COc1ccc2c(c1OC)CCC2=O,73 to 74
17,CCOc1c(Cl)cc(C(C)(C)N2CC(C)=C(c3ccccc3)C2=O)cc1Cl,133 to 135
18,O=C(Nc1ccc(N2CCN(C(=O)Nc3ccc(C(=O)O)cc3Cl)CC2)cc1)Nc1ccccc1F,250 to 253
19,CC(=Cc1ccccc1)c1ccc2c(c1)SCC(C)(C)CS2,45 to 48
20,CC(C)N(CCC(C(N)=O)(c1ccc(O)cc1)c1ccccn1)C(C)C (stereo unspecified),148 to 151

row,Structure (SMILES),melting point [°C]
1,CC(C)(CI)c1cc(Cl)nnc1Cl,104 to 106
2,Cc1cc(C)c(N2CCCCC2)cc1NS(=O)(=O)C(F)(F)F,92 to 94
3,CS(=O)(=O)c1ccc([C@@H](CC2CCCC2)C(=O)Nc2nc3ccccc3[nH]2)cc1,230 to 232
4,CCCc1nc2c(C)ccnc2n1Cc1ccc(-c2ccccc2-c2nnn[nH]2)cc1,200 to 202
5,CCNC(=O)Nc1ccc(-c2sc3c(c2CN(C)CCC(=O)N2CCCC2)c(=O)n(-c2ccccc2)c(=O)n3Cc2c(F)cccc2F)cc1,240 to 244
6,O=C(O)c1ccc2c(c1)S(=O)(=O)c1ccccc1S2,297 to 304
7,CCCCn1c(=O)c(NC(=O)Nc2c(C(C)C)cccc2C(C)C)c(-c2cccc(CCCO)c2)c2cccnc21,188 to 189
8,COC(=O)CN(NC(N)=O)c1ccc(Oc2ccccc2)cc1,110 to 113
9,COc1ccc(OCc2ccccc2)c2c1OCCO2,70
10,O=C1CCC(O)(c2ccc3c(c2)OCO3)CC1,162 to 164
11,Cc1c(Cc2ccccc2)c(=O)oc2cc(OCC#N)cc(OCC#N)c12,147 to 154
12,Cc1ccc(Cl)cc1C1CC(=O)c2c(C)ccnc2C1 (stereo unspecified),125 to 127
13,CCCCc1c(/C=C/C(=O)OC)ccc2cc(OC)ccc12,71 to 72
14,Cc1cn(C(C)(C)C(=O)N(C)C)nc1-c1ccc(Cl)c(Cl)c1,142
15,CCCS(=O)(=O)N1C[C@@H](C)C[C@H](Nc2ncccc2-c2cnc3[nH]ccc3n2)C1,178 to 180
16,Cc1c(NC(=O)c2ccc(-c3ccc(OC(F)(F)F)cc3)cc2)ccc2cc(CN3CCCC3)cnc12,200 to 202
17,COc1cccc(NC(=S)NC(NC(=O)c2ccc(C)cc2)C(F)(F)F)c1 (stereo unspecified),206 to 208
18,O=C1CCN(c2ccccc2)N1CN1C(=O)c2ccccc2S1(=O)=O,209 to 213
19,COC(=O)C1=CNC=Cc2c1n(C)c1ccccc21,131 to 132
20,CCCc1ccc(-c2ccc(CCc3ccc(Cl)c(F)c3)cc2)cc1,63.6

row,Structure (SMILES),melting point [°C]
1,Cn1nc(-c2cc(O)c(C#N)cc2F)c(Cl)c1C(F)(F)F,151
2,COc1ccc(-c2ccc(-c3ccc(F)cc3)nc2-c2ccc(OCc3ccccc3)cc2)cc1,114 to 115
3,CCSc1c(C=NOC)c(=O)n(C)c(=O)n1C,74 to 75
4,O=C(O)c1ccc(Sc2ccccc2)cc1,101 to 103
5,CSc1nn2c(N(C)C)cc(C)nc2c1S(=O)(=O)c1ccc(C(C)C)cc1,222 to 224
6,Cn1cncc1-c1cc(C=NN(CCC(C)(C)O)C(N)=S)nc(NC2CCN(S(C)(=O)=O)CC2)n1,204 to 206
7,CC(C)(C)OC(=O)NC(C)(C)c1ccc(C(=O)O)cc1,205 to 208
8,Clc1c2ccccc2nc2c1sc1ccccc12,158 to 159
9,O=c1[nH]c2cc(Cl)c(F)c([N+](=O)[O-])c2[nH]c1=O,308 to 310
10,Cc1cc(C2(c3ccc(Cl)cc3)OCCS2)ccc1NC(=O)c1cccc(I)c1C(=O)NC(C)C (stereo unspecified),214 to 217
11,CN(C)Cc1cc(C(=O)C2CCCCC2)cc(C(C)(C)C)c1O,149 to 150
12,COc1ccccc1C(O)c1cccc2c1ccn2C (stereo unspecified),95
13,CC(=CC#N)CCN1C(=O)c2ccccc2S1(=O)=O,117 to 118
14,CC(O)[C@@H](Cc1ccccc1)NC(=O)OC(C)(C)C (stereo partly specified),127
15,C=CCOc1cc(-c2cc(=O)c3c(OCC=C)c(CC=C)c(OCC=C)cc3o2)ccc1OC,107
16,O=C(O)CCCNC(=O)c1ccccc1NC(=O)c1ccccc1Br,117 to 118
17,O=S(=O)(c1ccccc1)c1ccc(OCc2ccccc2)c(O)c1,144 to 148
18,CC(NCC#N)C(O)(Cn1cncn1)c1ccc(F)cc1F (stereo unspecified),138 to 139
19,Cn1c(=O)c2c(nc(/C=C/c3ccc4c(c3)OCO4)n2C)n(C)c1=O,> 300

# The next lines start with the values.
row,melting point [°C],Structure (SMILES)
1,170 to 171,CC(C)C(=O)c1cccc(S(N)(=O)=O)c1
2,82 to 84,Cn1cc(C(O)(c2ccc3c(cnn3C(=O)OC3CCC3)c2)C(F)(F)F)c2ccccc21 (stereo unspecified)
3,133 to 135,COc1ccc(C(=O)CCCCCN2CCC(CNC(=O)c3cc(Cl)c(N)cc3OC)CC2)cc1
4,80 to 81,C/C(=C\c1ccc(CO)cc1)c1ccc2c(c1)C(C)(C)CCO2
5,250,CC(=O)Oc1ccc2nc(C(N)=O)nc(O)c2c1
6,125 to 126,COC(=O)c1cccc(-c2cccnc2)c1
7,147 to 149,CC1(CCn2nc(-c3ccncc3)oc2=O)Cn2cc([N+](=O)[O-])nc2O1 (stereo unspecified)
8,323 to 325,Cn1c(=O)n2nc(-c3ccc(Cl)cc3)nc2c2ccccc21
9,> 280,Cc1c(F)c(N)c(Cl)c2c1c(=O)c(C(=O)O)cn2-c1cc(N)c(F)cc1F
10,194,Brc1ccc(-c2cnc(-c3ccccc3)nc2)cc1
11,192 to 194,CCCn1c(CCOC)nc2c(N)nc3cc(OC4CCOC4)ccc3c21 (stereo unspecified)
12,110 to 112,O=C1CCC(=O)N1Sc1ccccc1
13,205 to 210,Cc1c(C(=O)Nc2ccc(N3CCC(N4CCOCC4)CC3)c(Br)c2)cnn1-c1ccc(Cl)cc1
14,237 to 238,COc1nc(S(C)(=O)=O)cnc1NS(=O)(=O)c1cccc(Cl)c1Cl
15,131 to 133,OCCc1c[nH]c(-c2ccccc2OCc2ccccc2)n1
16,196 to 201,CC(=O)Nc1c(OC(C)=O)cc(C(=O)O)cc1[N+](=O)[O-]
17,110,Cc1ccc(-c2ccc(CN3CCN(c4ccccc4)CC3)o2)cc1C
18,105 to 107,N#CC1=CC(CF)(CF)Oc2ccc(Br)cc21
19,268,Cc1cc2ccccc2n2c(S)nnc12
20,155 to 160,ON=Cc1ccc(OCc2coc(-c3ccc(C(F)(F)F)cc3)n2)cc1
21,> 250,Cn1c2c(cnc3c([N+](=O)[O-])cccc32)c(=O)n1C(=O)OC(C)(C)C

row,melting point [°C],Structure (SMILES)
1,83 to 84,OC1CCc2c(I)cccc21 (stereo unspecified)
2,156 to 160,O=C(Oc1ccccc1)c1ccc2[nH]nnc2c1
3,252,Cc1c(-n2c(C)ccc2C)cc(CC(C#N)=CNc2ccccc2)cc1-n1c(C)ccc1C
4,98 to 99,Clc1ccc(Nc2nc3ccccc3o2)c(Cl)c1
5,230,O=Cc1ccc2c3cccc4cccc(c5cccc1c52)c43
6,78 to 80,COC(=O)CN1CCC(OC)(c2cccc(OCc3ccc4ccccc4c3)c2)C1 (stereo unspecified)
7,177 to 178,C[C@@H]1CN(C(=O)[C@@](C)(O)C(F)(F)F)[C@@H](C)CN1C(=O)c1ccc(F)cc1
8,109 to 113,CC(C)(C)c1cc(C=CC#N)cc(C(C)(C)C)c1O
9,131 to 135,CCCCC1(Cn2ccnc2)SCCS1
10,131,CCOC(=O)c1c(O)c2cc(F)ccc2n(C)c1=O
11,225 to 228,CCc1nc2c(N)nc3ccccc3c2n1CCCS(=O)(=O)NC
12,150 to 155,COC(=O)c1cc(N)c(NS(C)(=O)=O)c(CO)c1
13,155 to 156,COCCCn1c(C=O)cc2c3c(c(-c4ccccc4Cl)cc21)C(=O)NC3=O
14,135 to 136,CC=CC=CCOC(=O)C1=C(C)NC(C)=C(C(=O)OC)C1c1cccc([N+](=O)[O-])c1 (stereo unspecified)
15,68,OCCc1ccc(OCCN2CCCCC2)cc1
16,162 to 163,CCOC(=O)Cc1ccc(NC(=O)C(COc2ccc(Cl)cc2)NS(=O)(=O)c2ccc(I)cc2)cc1 (racemic)
17,170 to 171,Cc1cccc(N(c2ccccc2)c2ccc(N(c3ccccc3)c3cccc(C)c3)cc2)c1
18,107 to 109,COC(=O)c1ncn(C2OC(COC(C)=O)C(OC(C)=O)C2OC(C)=O)n1 (stereo unspecified)
19,85 to 87,COc1nn(-c2ccc(C=O)c(Cl)c2)nc1Cl
20,191 to 193,CCOC(=O)c1ncc2[nH]c3ccc(S(=O)(=O)N(C)C)cc3c2c1COC
21,219,Clc1ccc(-c2nc(Sc3cccs3)[nH]c2-c2ccc(Cl)cc2)cc1

# — a melting point compilation (Tetko et al.; mined from patent text by program, amines drawn as free bases though some values may be those of a salt)
